Reference: ChEMBL document CHEMBL1123698, “alpha-Methylproline-containing renin inhibitory peptides: in vivo evaluation in an anesthetized, ganglion-blocked, hog renin infused rat model” (J Med Chem, 1987)
pIC50: −log10 of the molar value. Square brackets hold non-standard residues; d marks the D form. Peptide text beside a SMILES is read from it. * marks the point of attachment. Sta = CC(C)C[C@H](N)[C@@H](O)CC(=O)O; NHCH2(2-pyridyl) = c1ccc(CN*)nc1; αMeP = C[C@@]1(C(=O)O)CCCN1; Boc = CC(C)(C)OC(=O)*

Tests used:
Renin = target: T1, Renin (Homo sapiens, UniProt P00797); assay: In vitro inhibition against human plasma renin.; type: cell-free
T1 sequence (P00797 whole entry): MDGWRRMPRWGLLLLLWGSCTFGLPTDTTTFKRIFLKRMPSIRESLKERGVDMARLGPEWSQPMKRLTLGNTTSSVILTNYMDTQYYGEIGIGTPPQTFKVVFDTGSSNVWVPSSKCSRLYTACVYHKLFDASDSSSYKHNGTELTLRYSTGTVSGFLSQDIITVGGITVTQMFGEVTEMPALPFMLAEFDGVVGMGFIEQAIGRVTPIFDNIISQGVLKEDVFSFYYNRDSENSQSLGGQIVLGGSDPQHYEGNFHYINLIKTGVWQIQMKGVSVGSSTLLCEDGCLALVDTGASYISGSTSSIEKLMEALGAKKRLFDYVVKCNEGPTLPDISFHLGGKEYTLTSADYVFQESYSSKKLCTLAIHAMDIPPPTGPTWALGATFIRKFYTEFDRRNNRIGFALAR

Renin (Sus scrofa) = assay: In vitro inhibition against hog renin.

Row | Compound | pIC50 (Renin) | pIC50 (Renin (Sus scrofa))
1 | CC[C@H](C)[C@H](NC(=O)[C@@H](NC[C@H](CC(C)C)NC(=O)[C@H](Cc1c[nH]cn1)NC(=O)[C@H](Cc1ccccc1)NC(=O)[C@]1(C)CCCN1C(=O)OC(C)(C)C)C(C)C)C(=O)NCc1ccccn1 | 7.37 | 
2 | CC[C@H](C)[C@H](NC(=O)C[C@H](O)[C@H](CC(C)C)NC(=O)[C@H](Cc1ccccc1)NC(=O)[C@H](Cc1ccccc1)NC(=O)[C@]1(C)CCCN1C(=O)OC(C)(C)C)C(=O)NCc1ccccn1 (Boc-[αMeP]FF[Sta]I-{NHCH2(2-pyridyl)}) | 7.44 | 
3 | CC[C@H](C)[C@H](NC(=O)[C@@H](NC[C@H](O)[C@H](CC(C)C)NC(=O)[C@H](Cc1c[nH]cn1)N(C)C(=O)[C@H](Cc1ccccc1)NC(=O)[C@@H]1CCCN1C(=O)OC(C)(C)C)C(C)C)C(=O)NCc1ccccn1 |  | 7.40
4 | CC[C@H](C)[C@H](NC(=O)C[C@H](O)[C@H](CC(C)C)NC(=O)[C@H](Cc1c[nH]cn1)NC(=O)[C@H](Cc1ccccc1)NC(=O)[C@]1(C)CCCN1C(=O)OC(C)(C)C)C(=O)NCc1ccccn1 (Boc-[αMeP]FH[Sta]I-{NHCH2(2-pyridyl)}) | 8.46 | 
